Read-outs that look alike come from different tables or passages of the source.
Target: T1, human FXR (NR1H4) (Homo sapiens, UniProt Q96RI1)
T1 sequence (Q96RI1 1-486): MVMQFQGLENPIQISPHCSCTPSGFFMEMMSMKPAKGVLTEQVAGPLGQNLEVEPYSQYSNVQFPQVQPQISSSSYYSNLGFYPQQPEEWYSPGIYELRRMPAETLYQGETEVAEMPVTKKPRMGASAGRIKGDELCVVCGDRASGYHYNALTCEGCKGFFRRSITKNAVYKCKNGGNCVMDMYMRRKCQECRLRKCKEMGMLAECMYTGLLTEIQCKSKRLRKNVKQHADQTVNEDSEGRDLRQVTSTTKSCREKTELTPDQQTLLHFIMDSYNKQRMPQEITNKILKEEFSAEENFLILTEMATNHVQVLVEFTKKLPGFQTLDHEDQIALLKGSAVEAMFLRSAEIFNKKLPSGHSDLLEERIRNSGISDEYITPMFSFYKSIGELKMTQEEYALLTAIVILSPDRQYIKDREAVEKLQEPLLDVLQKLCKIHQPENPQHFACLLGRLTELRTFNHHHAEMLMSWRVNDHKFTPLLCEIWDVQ
Test: Human FXR (NR1H4) Assay: Gal4 promoter driven luciferase reporter transactivation in CHO cells (Indigo Bioscience kit IB00601)
Type: cell-based
Conditions: for Emax: CHO, read-out: Efficacy (%); for EC50: potency range, Human FXR (NR1H4) reporter assay in CHO cells, read-out: EC50
How it was run: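 CHO reporter cells expressing human NR1H4 with luciferase driven by an FXR-responsive promoter (Gal4 system), run per manufacturer's kit. Compounds applied to plated cells, then incubated a further 22 hours at 37° C. Luciferase luminescence read after detection reagent as a surrogate of FXR activation, giving potency and efficacy.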

[1] = efficacy normalized to CDCA set as 100%

SMILES	Emax [1] [%]	EC50 [nM]	Emax [%]
CCOc1cc(C(=O)O)ccc1NC(=O)N1C2CCC1CC(NCc1c(-c3ccccc3OC(F)(F)F)noc1C1CC1)C2 (centres unmarked) [Example 832]	50	10 to 100	–
O=C(NS(=O)(=O)C1CC1)c1cccc(NC(=O)N2C3CCC2CC(OCc2c(-c4ccccc4OC(F)(F)F)noc2C2CC2)C3)c1 (centres unmarked) [Example 264]	–	> 1000	–
O=C(Nc1cccc(-c2ccncc2)c1)N1C2CCC1CC(OCc1c(-c3c(Cl)cccc3Cl)noc1C1CC1)C2 (centres unmarked) [Example 836]	135	< 10	–
O=C(O)c1ccc(NC(=O)N2C3CCC2CC(OCc2c(-c4c(Cl)cccc4Cl)noc2C2CC2)C3)cc1 (centres unmarked) [Example 184]	–	< 10	–
O=C(Nc1cc(F)c(F)c(F)c1)N1C2CCC1CC(OCc1c(-c3c(Cl)cccc3Cl)noc1C1CC1)C2 (centres unmarked) [Example 10]	–	10 to 100	–
CCOC(=O)c1ccc2c(c1)N(C(=O)N1C3CCC1CC(OCc1c(-c4ccccc4OC(F)(F)F)noc1C1CC1)C3)CCC2 (centres unmarked) [Example 595]	–	> 1000	7
O=C(O)c1ccc(NC(=O)N2C3CCC2CC(OCc2c(-c4c(Cl)cccc4Cl)noc2C2CC2)C3)c(F)c1 (centres unmarked) [Example 692]	156	< 10	–
O=C(O)c1cccnc1NC(=O)N1C2CCC1CC(OCc1c(-c3ccccc3OC(F)(F)F)noc1C1CC1)C2 (centres unmarked) [Example 772]	31	> 1000	–
COC(=O)c1ccc(NC(=O)N2C3CCC2CC(OCc2c(-c4ccccc4OC(F)(F)F)noc2C2CC2)C3)c(F)c1 (centres unmarked) [Example 745]	–	100 to 1000	–
O=C(O)c1ccc(NC(=O)N2C3CCC2CC(OCc2c(-c4ccccc4C4CC4)noc2C2CC2)C3)c(F)c1 (centres unmarked) [Example 809]	43	10 to 100	–
O=C(Nc1cccc(C2CCCCC2)c1)N1C2CCC1CC(OCc1c(-c3c(Cl)cccc3Cl)noc1C1CC1)C2 (centres unmarked) [Example 712]	144	10 to 100	–
O=C(Nc1cccc(-c2ccccn2)c1)N1C2CCC1CC(OCc1c(-c3c(Cl)cccc3Cl)noc1C1CC1)C2 (centres unmarked) [Example 736]	136	< 10	–
O=C(Nc1cncc(C(F)(F)F)c1)N1C2CCC1CC(OCc1c(-c3c(Cl)cccc3Cl)noc1C1CC1)C2 (centres unmarked) [Example 18]	–	< 10	–
COC(=O)c1ccc(NC(=O)N2C3CCC2CC(OCc2c(-c4c(Cl)cccc4Cl)noc2C2CC2)C3)c(OC(F)(F)F)c1 (centres unmarked) [Example 716]	43	100 to 1000	–
CN(C)S(=O)(=O)c1cccc(NC(=O)N2C3CCC2CC(OCc2c(-c4c(Cl)cccc4Cl)noc2C2CC2)C3)c1 (centres unmarked) [Example 25]	–	< 10	–
O=C(Nc1cccc(-c2cnn(C3CCOCC3)c2)c1)N1C2CCC1CC(OCc1c(-c3c(Cl)cccc3Cl)noc1C1CC1)C2 (centres unmarked) [Example 708]	209	< 10	–
C[C@H](NC(=O)N1C2CCC1CC(OCc1c(-c3c(Cl)cccc3Cl)noc1C1CC1)C2)c1ccccc1 (some centres unmarked) [Example 705]	242	< 10	–
O=C(Nc1cnc2ccccc2c1)N1C2CCC1CC(OCc1c(-c3c(Cl)cccc3Cl)noc1C1CC1)C2 (centres unmarked) [Example 21]	–	10 to 100	–
O=C(Nc1ccc(C(F)F)cc1)N1C2CCC1CC(OCc1c(-c3c(Cl)cccc3Cl)noc1C1CC1)C2 (centres unmarked) [Example 189]	–	10 to 100	–
O=C(O)c1ccc(NC(=O)N2C3CCC2CC(OCc2c(-c4ccccc4OC(F)(F)F)noc2C2CC2)C3)cc1OC(F)(F)F (centres unmarked) [Example 822]	76	< 10	–
COC(=O)c1ccc(NC(=O)N2C3CCC2CC(OCc2c(-c4c(Cl)cccc4Cl)noc2C2CC2)C3)c(C#N)c1 (centres unmarked) [Example 802]	28	100 to 1000	–

SMILES	Emax [1] [%]	EC50 [nM]	Emax [%]
O=C(NCc1ccc(-c2ccccc2)cc1)N1C2CCC1CC(OCc1c(-c3c(Cl)cccc3Cl)noc1C1CC1)C2 (centres unmarked) [Example 738]	139	100 to 1000	–
O=C(Nc1cc(F)cc(C(F)(F)F)c1)N1C2CCC1CC(OCc1c(-c3c(Cl)cccc3Cl)noc1C1CC1)C2 (centres unmarked) [Example 11]	–	< 10	–
O=C(Nc1ccc(-c2ccccc2)cc1)N1C2CCC1CC(OCc1c(-c3c(Cl)cccc3Cl)noc1C1CC1)C2 (centres unmarked) [Example 728]	141	10 to 100	–
CCOC(=O)c1ccccc1NC(=O)N1C2CCC1CC(OCc1c(-c3ccccc3OC(F)(F)F)noc1C1CC1)C2 (centres unmarked) [Example 743]	140	> 1000	–
COc1cccc(C(=O)O)c1NC(=O)N1C2CCC1CC(OCc1c(-c3ccccc3OC(F)(F)F)noc1C1CC1)C2 (centres unmarked) [Example 762]	6	100 to 1000	–
C[C@@H](NC(=O)N1C2CCC1CC(OCc1c(-c3c(Cl)cccc3Cl)noc1C1CC1)C2)c1ccccc1 (some centres unmarked) [Example 694]	–	100 to 1000	124
COC(=O)c1cc(OC)c(NC(=O)N2C3CCC2CC(OCc2c(-c4c(Cl)cccc4Cl)noc2C2CC2)C3)cc1-c1ccccc1 (centres unmarked) [Example 792]	92	< 10	–
COC(=O)c1ccc(NC(=O)N2C3CCC2CC(OCc2c(-c4c(Cl)cccc4Cl)noc2C2CC2)C3)c(F)c1-c1ccccc1 (centres unmarked) [Example 795]	44	10 to 100	–
O=C(O)c1cccc(NC(=O)N2C3CCC2CC(OCc2c(-c4ccccc4OC(F)(F)F)noc2C2CC2)C3)n1 (centres unmarked) [Example 771]	54	> 1000	–
O=C(O)c1ccc(NC(=O)N2C3CCC2CC(OCc2c(-c4c(F)cccc4F)noc2C2CC2)C3)c(C(F)(F)F)c1 (centres unmarked) [Example 818]	25	10 to 100	–
COC(=O)c1ccc(NC(=O)N2C3CCC2CC(OCc2c(-c4c(Cl)cccc4Cl)noc2C2CC2)C3)cc1-c1ccccc1 (centres unmarked) [Example 200]	–	< 10	–
CC(C)(C)c1ccc(S(=O)(=O)NC(=O)c2ccc(NC(=O)N3C4CCC3CC(OCc3c(-c5ccccc5OC(F)(F)F)noc3C3CC3)C4)cc2)cc1 (centres unmarked) [Example 757]	257	100 to 1000	–
COC(=O)c1ccc(F)c(NC(=O)N2C3CCC2CC(OCc2c(-c4ccccc4OC(F)(F)F)noc2C2CC2)C3)c1 (centres unmarked) [Example 747]	145	100 to 1000	–
O=C(NCc1cncc(-c2ccccc2)c1)N1C2CCC1CC(OCc1c(-c3c(Cl)cccc3Cl)noc1C1CC1)C2 (centres unmarked) [Example 739]	108	10 to 100	–
O=C(Nc1cc(F)cc(F)c1)N1C2CCC1CC(OCc1c(-c3c(Cl)cccc3Cl)noc1C1CC1)C2 (centres unmarked) [Example 700]	292	< 10	–
N#Cc1cc(F)cc(NC(=O)N2C3CCC2CC(OCc2c(-c4c(Cl)cccc4Cl)noc2C2CC2)C3)c1 (centres unmarked) [Example 704]	157	< 10	–
CCOC(=O)c1ccc(NC(=O)N2C3CCC2CC(NCc2c(-c4ccccc4OC(F)(F)F)noc2C2CC2)C3)c(OCC)c1 (centres unmarked) [Example 831]	15	10 to 100	–
O=C(Nc1ccc(-c2nnn[nH]2)cc1)N1C2CCC1CC(OCc1c(-c3c(Cl)cccc3Cl)noc1C1CC1)C2 (centres unmarked) [Example 701]	306	100 to 1000	–
COC(=O)c1ccc(NC(=O)N2C3CCC2CC(OCc2c(-c4c(Cl)cccc4Cl)noc2C2CC2)C3)cc1-c1ccc(C(F)(F)F)nc1 (centres unmarked) [Example 796]	95	< 10	–
O=C(Nc1ccc(F)c(F)c1)N1C2CCC1CC(OCc1c(-c3c(Cl)cccc3Cl)noc1C1CC1)C2 (centres unmarked) [Example 699]	232	10 to 100	–
COC(=O)CNC(=O)c1ccc(NC(=O)N2C3CCC2CC(OCc2c(-c4c(Cl)cccc4Cl)noc2C2CC2)C3)c(F)c1 (centres unmarked) [Example 781]	100	10 to 100	–

Reference: patent US10597391B2, “Urea-containing isoxazole derivatives as FXR agonists and methods of use thereof” (Enanta Pharmaceuticals, Inc., priority 2016, dated 2020)
